PubChem BioAssay AID330 (DTP/NCI, 2004)
Where “and” joins values, the source holds several entries; their conditions need not be identical. Identical values can stand only once. Inconclusive results and toxic doses are left out.

Test system: P388 leukemia ip, CD2F1 mice, survival T/C
Assay: NCI In Vivo Anticancer Drug Screen. Data for tumor model P388 Leukemia (intraperitoneal) in CD2F1 (CDF1) mice
Conditions: endpoint: median survival time, higher = longer survival
Method in brief: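 Mice carrying the transplanted tumor received test compound or vehicle. Survival was recorded in each group, and the value is the treated-group measurement divided by that of the vehicle-treated control group.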

[1] = dose: 60.0 mg/kg/injection, schedule: Q01DX005 (ip), vehicle: Klucel (hydroxypropylcellulose) (HPC)
[2] = dose: 120.0 mg/kg/injection, schedule: Q01DX005 (ip), vehicle: Klucel (hydroxypropylcellulose) (HPC)
[3] = dose: 50.0 mg/kg/injection, schedule: Q01DX009 (ip), vehicle: Klucel (hydroxypropylcellulose) (HPC)
[4] = dose: 100.0 mg/kg/injection, schedule: Q01DX009 (ip), vehicle: Klucel (hydroxypropylcellulose) (HPC)
[5] = dose: 12.5 mg/kg/injection, schedule: Q01DX005 (ip), vehicle: saline with Tween-80
[6] = dose: 25.0 mg/kg/injection, schedule: Q01DX005 (ip), vehicle: saline with Tween-80
[7] = dose: 50.0 mg/kg/injection, schedule: Q01DX005 (ip), vehicle: saline with Tween-80
[8] = dose: 100.0 mg/kg/injection, schedule: Q01DX005 (ip), vehicle: saline with Tween-80
[9] = dose: 50.0 mg/kg/injection, schedule: Q01DX009 (ip), vehicle: saline
[10] = dose: 100.0 mg/kg/injection, schedule: Q01DX009 (ip), vehicle: saline
[11] = dose: 200.0 mg/kg/injection, schedule: Q01DX009 (ip), vehicle: saline
[12] = dose: 60.0 mg/kg/injection, schedule: Q01DX005 (ip), vehicle: saline with Tween-80
[13] = dose: 120.0 mg/kg/injection, schedule: Q01DX005 (ip), vehicle: saline with Tween-80
[14] = dose: 240.0 mg/kg/injection, schedule: Q01DX005 (ip), vehicle: saline with Tween-80

## CCOC(=O)CCCC(NC(=O)c1ccc(N2CCN(c3c(N)nc(N)nc3NC)CC2)cc1)C(=O)OCC (configuration not stated)
[1]
  T/C: 91 % of control
[2]
  T/C: 87 % of control
dose: 240.0 mg/kg/injection, schedule: Q01DX005 (ip), vehicle: Klucel (hydroxypropylcellulose) (HPC)
  T/C: 96 % of control

## CC(O)CN(CCN(CC(C)O)CC(C)O)CC(C)O.[Cl-].[Zn+2] (configuration not stated)
dose: 12.5 mg/kg/injection, schedule: Q01DX009 (ip), vehicle: saline
  T/C: 117 % of control
dose: 25.0 mg/kg/injection, schedule: Q01DX009 (ip), vehicle: saline
  T/C: 122 % of control

## O=C(NC(=S)c1ccc(Cl)cc1)Nc1ccc(Cl)c(Cl)c1
dose: 5.0 mg/kg/injection, schedule: Q01DX009 (ip), vehicle: saline with Tween-80
  T/C: 87 % of control
dose: 10.0 mg/kg/injection, schedule: Q01DX009 (ip), vehicle: saline with Tween-80
  T/C: 96 % of control
dose: 20.0 mg/kg/injection, schedule: Q01DX009 (ip), vehicle: saline with Tween-80
  T/C: 100 % of control

## CC(=O)NCCSC(NC(=O)Cc1ccccc1)C(=O)O (configuration not stated)
[3]
  T/C: 94 % of control
[4]
  T/C: 97 % of control
dose: 200.0 mg/kg/injection, schedule: Q01DX009 (ip), vehicle: Klucel (hydroxypropylcellulose) (HPC)
  T/C: 100 % of control

## c1ccc(-c2nn(-c3ccccc3)[n+](-c3ccccc3-c3ccccc3)n2)cc1
dose: 5.0 mg/kg/injection, schedule: Q01DX009 (ip), vehicle: saline
  T/C: 109 % of control and 114 % of control
dose: 10.0 mg/kg/injection, schedule: Q01DX009 (ip), vehicle: saline
  T/C: 120 % of control
dose: 20.0 mg/kg/injection, schedule: Q01DX009 (ip), vehicle: saline
  T/C: 121 % of control

## CCN(CC)CCC(=O)c1ccc(Cl)c2ccccc12
dose: 6.25 mg/kg/injection, schedule: Q01DX005 (ip), vehicle: saline with Tween-80
  T/C: 101 % of control
[5]
  T/C: 93 % of control
[6]
  T/C: 99 % of control and 104 % of control
[7]
  T/C: 109 % of control
[8]
  T/C: 93 % of control

## COC(=O)c1nc(N)nc(C(=O)OC)c1C(=O)c1ccc(F)cc1
[1]
  T/C: 101 % of control
[2]
  T/C: 102 % of control

## O=C1c2ccccc2C(=O)N1N1C(=O)c2ccccc2C1=O
dose: 100.0 mg/kg/injection, schedule: Q04DX003 (ip), vehicle: saline with Tween-80
  T/C: 100 % of control
dose: 200.0 mg/kg/injection, schedule: Q04DX003 (ip), vehicle: saline with Tween-80
  T/C: 100 % of control
dose: 400.0 mg/kg/injection, schedule: Q04DX003 (ip), vehicle: saline with Tween-80
  T/C: 100 % of control

## NC(=O)C(=Nc1ccccc1)Nc1ccccc1
dose: 100.0 mg/kg/injection, schedule: Q01DX001 (ip), vehicle: saline
  T/C: 115 % of control
dose: 200.0 mg/kg/injection, schedule: Q01DX001 (ip), vehicle: saline
  T/C: 107 % of control
dose: 400.0 mg/kg/injection, schedule: Q01DX001 (ip), vehicle: saline
  T/C: 104 % of control

## NC(=O)c1cc(Br)ccc1[N+](=O)[O-]
[9]
  T/C: 97 % of control
[10]
  T/C: 97 % of control
[11]
  T/C: 87 % of control

## CN(C)c1ccc(C2c3c(oc4ccccc4c3=O)Oc3oc4ccccc4c(=O)c32)cc1
dose: 15.0 mg/kg/injection, schedule: Q01DX005 (ip), vehicle: saline with Tween-80
  T/C: 98 % of control
dose: 30.0 mg/kg/injection, schedule: Q01DX005 (ip), vehicle: saline with Tween-80
  T/C: 100 % of control
[12]
  T/C: 89 % of control

## Nc1ccc2nnnn2n1
[9]
  T/C: 100 % of control
[10]
  T/C: 98 % of control
[11]
  T/C: 98 % of control

## S=C=Nc1ccc(-c2csc(Nc3ccnc4cc(Cl)ccc34)n2)cc1
[5]
  T/C: 101 % of control
[6]
  T/C: 98 % of control
[7]
  T/C: 99 % of control and 91 % of control
[8]
  T/C: 94 % of control

## O=c1oc(-c2ccc(Cl)cc2Cl)nc2cc(Cl)ccc12
[12]
  T/C: 104 % of control
[13]
  T/C: 112 % of control

## CN1c2c(nc(N)[nH]c2=O)NCC1CCNc1ccc(C(=O)NC(CCC(=O)O)C(=O)O)cc1 (configuration not stated)
dose: 25.0 mg/kg/injection, schedule: Q01DX009 (ip), vehicle: Klucel (hydroxypropylcellulose) (HPC)
  T/C: 115 % of control
[3]
  T/C: 115 % of control
dose: 75.0 mg/kg/injection, schedule: Q01DX005 (ip), vehicle: saline
  T/C: 100 % of control
dose: 75.0 mg/kg/injection, schedule: Q01DX005 (iv), vehicle: saline
  T/C: 100 % of control
dose: 75.0 mg/kg/injection, schedule: Q01DX009 (ip), vehicle: saline
  T/C: 105 % of control
dose: 75.0 mg/kg/injection, schedule: Q01DX009 (ip), vehicle: sodium bicarbonate
  T/C: 112 % of control
[4]
  T/C: 124 % of control
[10]
  T/C: 113 % of control
dose: 150.0 mg/kg/injection, schedule: Q01DX005 (ip), vehicle: saline
  T/C: 107 % of control
dose: 150.0 mg/kg/injection, schedule: Q01DX005 (iv), vehicle: saline
  T/C: 107 % of control
dose: 150.0 mg/kg/injection, schedule: Q01DX009 (ip), vehicle: saline
  T/C: 108 % of control
dose: 150.0 mg/kg/injection, schedule: Q01DX009 (ip), vehicle: sodium bicarbonate
  T/C: 114 % of control
dose: 300.0 mg/kg/injection, schedule: Q01DX005 (ip), vehicle: saline
  T/C: 109 % of control and 123 % of control
dose: 300.0 mg/kg/injection, schedule: Q01DX005 (iv), vehicle: saline
  T/C: 108 % of control and 113 % of control
dose: 300.0 mg/kg/injection, schedule: Q01DX009 (ip), vehicle: saline
  T/C: 116 % of control
dose: 300.0 mg/kg/injection, schedule: Q01DX009 (ip), vehicle: sodium bicarbonate
  T/C: 120 % of control
dose: 600.0 mg/kg/injection, schedule: Q01DX005 (ip), vehicle: saline
  T/C: 107 % of control and 118 % of control
dose: 600.0 mg/kg/injection, schedule: Q01DX005 (iv), vehicle: saline
  T/C: 104 % of control and 122 % of control
dose: 600.0 mg/kg/injection, schedule: Q01DX009 (ip), vehicle: saline
  T/C: 119 % of control
dose: 600.0 mg/kg/injection, schedule: Q01DX009 (ip), vehicle: sodium bicarbonate
  T/C: 122 % of control
dose: 800.0 mg/kg/injection, schedule: Q01DX009 (ip), vehicle: Klucel (hydroxypropylcellulose) (HPC)
  T/C: 99 % of control

## COC(=O)C1=NOC(Cc2ccccc2)C1 (configuration not stated)
[12]
  T/C: 100 % of control
[13]
  T/C: 114 % of control
[14]
  T/C: 96 % of control

## O=C[c-]1[c-][c-][c-][c-]1.[Fe+2].[c-]1[c-][c-][cH-][c-]1
dose: 6.25 mg/kg/injection, schedule: Q01DX009 (ip), vehicle: saline with Tween-80
  T/C: 106 % of control
dose: 12.5 mg/kg/injection, schedule: Q01DX009 (ip), vehicle: saline with Tween-80
  T/C: 95 % of control
dose: 25.0 mg/kg/injection, schedule: Q01DX009 (ip), vehicle: saline with Tween-80
  T/C: 97 % of control
dose: 50.0 mg/kg/injection, schedule: Q01DX009 (ip), vehicle: saline with Tween-80
  T/C: 99 % of control

## CCCCN(CCCC)C(=N)c1cc(OC)ccc1OC
dose: 3.12 mg/kg/injection, schedule: Q01DX005 (ip), vehicle: saline
  T/C: 101 % of control
dose: 6.25 mg/kg/injection, schedule: Q01DX005 (ip), vehicle: saline
  T/C: 100 % of control

## NC(N)=Nc1nc2ccccc2o1
dose: 50.0 mg/kg/injection, schedule: Q04DX003 (ip), vehicle: Klucel (hydroxypropylcellulose) (HPC)
  T/C: 90 % of control
dose: 100.0 mg/kg/injection, schedule: Q04DX003 (ip), vehicle: Klucel (hydroxypropylcellulose) (HPC)
  T/C: 100 % of control
dose: 200.0 mg/kg/injection, schedule: Q04DX003 (ip), vehicle: Klucel (hydroxypropylcellulose) (HPC)
  T/C: 100 % of control

## Cn1c2c(c3cc(Cl)cc(Cl)c31)-c1ncncc1CC2
dose: 100.0 mg/kg/injection, schedule: Q04DX002 (ip), vehicle: saline with Tween-80
  T/C: 98 % of control
dose: 200.0 mg/kg/injection, schedule: Q04DX002 (ip), vehicle: saline with Tween-80
  T/C: 98 % of control
dose: 400.0 mg/kg/injection, schedule: Q04DX002 (ip), vehicle: saline with Tween-80
  T/C: 95 % of control

## CCC(C1SC(=S)NC1=O)C1SC(=S)NC1=O (configuration not stated)
[7]
  T/C: 92 % of control
[8]
  T/C: 97 % of control

## CCN(CC)C(=O)N1C=CC(c2ccccc2)C=C1
[12]
  T/C: 103 % of control
[13]
  T/C: 106 % of control
[14]
  T/C: 108 % of control

## O=S(=O)(O)O.[NH-]C1CCCC1[NH-].[Pt+2] (configuration not stated)
dose: 6.25 mg/kg/injection, schedule: Q04DX002 (ip), vehicle: saline
  T/C: 177 % of control and 195 % of control
dose: 12.5 mg/kg/injection, schedule: Q04DX002 (ip), vehicle: saline
  T/C: 180 % of control and 202 % of control
dose: 12.5 mg/kg/injection, schedule: Q04DX002 (ip), vehicle: suspension in saline
  T/C: 191 % of control
dose: 25.0 mg/kg/injection, schedule: Q04DX002 (ip), vehicle: saline
  T/C: 198 % of control and 194 % of control
